Experiments:
Ixodes holocyclus = test: Efficacy against induced Ixodes holocyclus infestations on dogs (Example 5)
Amblyomma americanum = test: Long lasting efficacy against A. americanum on dogs (Example 6, Table 52); assay type: in vivo
Description: Forty two beagles were allotted to seven groups of six dogs each. Groups 1 and 2 served as untreated controls. Groups 3, 4 and 5 were each treated on Day 0 with three different compositions of the invention described in Tables 30, 31 and 32, respectively, containing Compound A in an amount to deliver a dose of about 20 mg/kg of body weight. Similarly, on Day 0, Groups 6 and 7 were each treated with the compositions described in Tables 30 and 32, respectively, containing Compound A to deliver a dose of about 20 mg/kg of body weight.
Dogs in Groups 1, 3, 4 and 5 were infested with approximately 50 A. americanum and dogs in Groups 2, 6 and 7 were infested with approximately 50 D. variabilis on Days −1, 42, 56, 70, 77, 84, 91 and 98. Dogs in Groups 1, 2, 3, 6 and 7 were also infested on Day 105. Ticks were counted upon removal at approximately 48 hours post treatment on Day 2 and 48 hours post infestation on Days 44, 58, 72, 79, 86, 93, 100 and 107. Tables 52 and 53 below show the exceptional long-lasting efficacy of the inventive compositions against A. americanum and D. variabilis.

[1] = Plasma concentration of Compound A in dogs after oral administration (FIG. 5); assay type: in vivo; settings: soft chews at 20 mg/kg and 40 mg/kg compared with polyethylene glycol/alcohol solution at 25 mg/kg
Excerpt: Although the extremely high bioavailability of the chewable compositions is in part due to the physicochemical properties of the isoxazoline active agents, the high levels observed from the chewable compositions of the invention are made possible by the presence and combination of the non-active excipients, which ensure complete and predictable dissolution of the composition and maintain the active agents in solution in the digestive tract of the animal. […] This plot compares the plasma concentration of an isoxazoline active agent (Compound A) delivered from soft chewable compositions of the invention designed to deliver 20 mg/kg and 40 mg/kg of body weight with administration of a polyethylene glycol/alcohol solution of the active agent at 25 mg/kg body weight. […] This is particularly surprising since the chewable compositions are in the form of a solid that must disintegrate and completely release and solubilize the active agent for efficient absorption during digestion. One would expect the solution to provide higher bioavailability because the active agent is completely dissolved when administered.

O=C(CNC(=O)c1ccc(C2=NOC(c3cc(Cl)cc(C(F)(F)F)c3)(C(F)(F)F)C2)c2ccccc12)NCC(F)(F)F (centres unmarked) [Compound A, 4-[5-[3-chloro-5-(trifluoromethyl)phenyl]-4,5-dihydro-5-(trifluoromethyl)-3-isoxazolyl]-N-[2-oxo-2-[(2,2,2-trifluoroethyl)amino]ethyl]-1-naphthalenecarboxamide]
Percent efficacy (Ixodes holocyclus; 24 hours post infestation on Days 1, 8, 15 and 22, Table 10 soft chew, at least 2.5 mg/kg once on Day 0): at least 95.8%
Percent efficacy (Ixodes holocyclus; 48 hours post infestation, all time points measured, once on Day 0, at least 2.5 mg/kg Compound A (Table 10), combination plus at least 0.5 mg/kg milbemycin oxime (Table 13)): at least 98.7%
Percent efficacy (Ixodes holocyclus; 72 hours post infestation, all time points measured, once on Day 0, at least 2.5 mg/kg Compound A (Table 10), combination plus at least 0.5 mg/kg milbemycin oxime (Table 13)): at least 99.2%
% Reduction Ticks (Amblyomma americanum; Group 3, composition of Table 30, about 20 mg/kg once on Day 0, dogs, Day 2): 100.0%
% Reduction Ticks (Amblyomma americanum; Group 3, composition of Table 30, about 20 mg/kg once on Day 0, dogs, Day 44): 98.4%
% Reduction Ticks (Amblyomma americanum; Group 3, composition of Table 30, about 20 mg/kg once on Day 0, dogs, Day 58): 98.8%
% Reduction Ticks (Amblyomma americanum; Group 3, composition of Table 30, about 20 mg/kg once on Day 0, dogs, Day 72): 99.5%
% Reduction Ticks (Amblyomma americanum; Group 3, composition of Table 30, about 20 mg/kg once on Day 0, dogs, Day 79): 94.4%
% Reduction Ticks (Amblyomma americanum; Group 3, composition of Table 30, about 20 mg/kg once on Day 0, dogs, Day 86): 98.9%
% Reduction Ticks (Amblyomma americanum; Group 3, composition of Table 30, about 20 mg/kg once on Day 0, dogs, Day 93): 99.5%
% Reduction Ticks (Amblyomma americanum; Group 3, composition of Table 30, about 20 mg/kg once on Day 0, dogs, Day 100): 95.6%
% Reduction Ticks (Amblyomma americanum; Group 3, composition of Table 30, about 20 mg/kg once on Day 0, dogs, Day 107): 93.4%
% Reduction Ticks (Amblyomma americanum; Group 4, composition of Table 31, about 20 mg/kg once on Day 0, dogs, Day 2): 100.0%
% Reduction Ticks (Amblyomma americanum; Group 4, composition of Table 31, about 20 mg/kg once on Day 0, dogs, Day 44): 99.4%
% Reduction Ticks (Amblyomma americanum; Group 4, composition of Table 31, about 20 mg/kg once on Day 0, dogs, Day 58): 99.4%
% Reduction Ticks (Amblyomma americanum; Group 4, composition of Table 31, about 20 mg/kg once on Day 0, dogs, Day 72): 97.7%
% Reduction Ticks (Amblyomma americanum; Group 4, composition of Table 31, about 20 mg/kg once on Day 0, dogs, Day 79): 88.6%
% Reduction Ticks (Amblyomma americanum; Group 4, composition of Table 31, about 20 mg/kg once on Day 0, dogs, Day 86): 97.5%
% Reduction Ticks (Amblyomma americanum; Group 4, composition of Table 31, about 20 mg/kg once on Day 0, dogs, Day 93): 97.7%
% Reduction Ticks (Amblyomma americanum; Group 4, composition of Table 31, about 20 mg/kg once on Day 0, dogs, Day 100): 90.9%
% Reduction Ticks (Amblyomma americanum; Group 5, composition of Table 32, about 20 mg/kg once on Day 0, dogs, Day 2): 100.0%
% Reduction Ticks (Amblyomma americanum; Group 5, composition of Table 32, about 20 mg/kg once on Day 0, dogs, Day 44): 100.0%
% Reduction Ticks (Amblyomma americanum; Group 5, composition of Table 32, about 20 mg/kg once on Day 0, dogs, Day 58): 99.5%
% Reduction Ticks (Amblyomma americanum; Group 5, composition of Table 32, about 20 mg/kg once on Day 0, dogs, Day 72): 100.0%
% Reduction Ticks (Amblyomma americanum; Group 5, composition of Table 32, about 20 mg/kg once on Day 0, dogs, Day 79): 98.8%
% Reduction Ticks (Amblyomma americanum; Group 5, composition of Table 32, about 20 mg/kg once on Day 0, dogs, Day 86): 97.8%
% Reduction Ticks (Amblyomma americanum; Group 5, composition of Table 32, about 20 mg/kg once on Day 0, dogs, Day 93): 98.2%
% Reduction Ticks (Amblyomma americanum; Group 5, composition of Table 32, about 20 mg/kg once on Day 0, dogs, Day 100): 87.8%
Plasma concentration of Compound A [1]: significantly higher plasma levels

— patent US9931320B2, “Parasiticidal oral veterinary compositions comprising systemically-acting active agents, methods and uses thereof” (MERIAL INC., priority 2012, dated 2018)
